PubChem BioAssay AID1259407 (Chemical Carcinogenesis Research Information System (CCRIS), 2018)
Activity calls are given as the source filed them. How the calls were made is not given here.

Test system: CCRIS mutagenicity, Ames/micronucleus/aberration tests
Experiment: CCRIS mutagenicity studies
[1] = Test System: AMES SALMONELLA TYPHIMURIUM, Strain/Indicator: TA98, Metabolic Activation: NONE, Method: STANDARD PLATE
[2] = Test System: AMES SALMONELLA TYPHIMURIUM, Strain/Indicator: TA100, Metabolic Activation: NONE, Method: PREINCUBATION
[3] = Test System: AMES SALMONELLA TYPHIMURIUM, Strain/Indicator: TA104, Metabolic Activation: NONE, Method: STANDARD PLATE
[4] = Test System: AMES SALMONELLA TYPHIMURIUM, Strain/Indicator: TA100, Metabolic Activation: NONE, Method: STANDARD PLATE

C#CCc1ccc(COC(=O)C2C(C=C(C)C)C2(C)C)o1 (stereo not given)
mutagenic call (Test System: AMES SALMONELLA TYPHIMURIUM, Strain/Indicator: TA98): inactive; negative
mutagenic call (Test System: AMES SALMONELLA TYPHIMURIUM, Strain/Indicator: TA98, Metabolic Activation: NONE): inactive; negative
mutagenic call (Test System: AMES SALMONELLA TYPHIMURIUM, Strain/Indicator: TA100): active; positive
mutagenic call (Test System: AMES SALMONELLA TYPHIMURIUM, Strain/Indicator: TA100, Metabolic Activation: NONE): inactive; negative

COc1cc(NC(C)CCCN)c2ncccc2c1 (stereo not given)
mutagenic call (Test System: AMES SALMONELLA TYPHIMURIUM, Strain/Indicator: TA97, Metabolic Activation: NONE, Method: PREINCUBATION): active; positive
mutagenic call (Test System: AMES SALMONELLA TYPHIMURIUM, Strain/Indicator: TA97, Metabolic Activation: RAT, LIVER, S-9, PHENOBARBITAL AND BETA-NAPHTHOFLAVONE, Method: PREINCUBATION): active; positive
mutagenic call (Test System: AMES SALMONELLA TYPHIMURIUM, Strain/Indicator: TA97A, Metabolic Activation: NONE, Method: STANDARD PLATE): inactive; negative
mutagenic call (Test System: AMES SALMONELLA TYPHIMURIUM, Strain/Indicator: TA97A, Metabolic Activation: RAT LIVER S-9, PHENOBARBITAL, Method: STANDARD PLATE): inactive; negative
mutagenic call (Test System: AMES SALMONELLA TYPHIMURIUM, Strain/Indicator: TA98, Metabolic Activation: NONE, Method: PREINCUBATION): inactive; negative
mutagenic call [1]: active; positive
mutagenic call (Test System: AMES SALMONELLA TYPHIMURIUM, Strain/Indicator: TA98, Metabolic Activation: RAT, LIVER, S-9, AROCLOR 1254 OR PHENOBARBITOL, Method: STANDARD PLATE): active; positive
mutagenic call (Test System: AMES SALMONELLA TYPHIMURIUM, Strain/Indicator: TA98, Metabolic Activation: RAT, LIVER, S-9, PHENOBARBITAL AND BETA-NAPHTHOFLAVONE, Method: PREINCUBATION): inactive; negative
mutagenic call (Test System: AMES SALMONELLA TYPHIMURIUM, Strain/Indicator: TA98, Metabolic Activation: RAT, LIVER, S-9, Method: PREINCUBATION): inactive; negative
mutagenic call [2]: inactive; negative
mutagenic call (Test System: AMES SALMONELLA TYPHIMURIUM, Strain/Indicator: TA100, Metabolic Activation: RAT LIVER S-9, PHENOBARBITAL, Method: STANDARD PLATE): inactive; negative
mutagenic call (Test System: AMES SALMONELLA TYPHIMURIUM, Strain/Indicator: TA100, Metabolic Activation: RAT, LIVER, S-9, AROCLOR 1254 OR PHENOBARBITOL, Method: STANDARD PLATE): active; positive
mutagenic call (Test System: AMES SALMONELLA TYPHIMURIUM, Strain/Indicator: TA100, Metabolic Activation: RAT, LIVER, S-9, PHENOBARBITAL AND BETA-NAPHTHOFLAVONE, Method: PREINCUBATION): inactive; negative
mutagenic call (Test System: AMES SALMONELLA TYPHIMURIUM, Strain/Indicator: TA100, Metabolic Activation: RAT, LIVER, S-9, Method: PREINCUBATION): inactive; negative
mutagenic call (Test System: AMES SALMONELLA TYPHIMURIUM, Strain/Indicator: TA102, Metabolic Activation: NONE, Method: PREINCUBATION): inactive; negative
mutagenic call (Test System: AMES SALMONELLA TYPHIMURIUM, Strain/Indicator: TA102, Metabolic Activation: NONE, Method: STANDARD PLATE): inactive; negative
mutagenic call (Test System: AMES SALMONELLA TYPHIMURIUM, Strain/Indicator: TA102, Metabolic Activation: RAT LIVER S-9, PHENOBARBITAL, Method: STANDARD PLATE): inactive; negative
mutagenic call (Test System: AMES SALMONELLA TYPHIMURIUM, Strain/Indicator: TA102, Metabolic Activation: RAT, LIVER, S-9, PHENOBARBITAL AND BETA-NAPHTHOFLAVONE, Method: PREINCUBATION): inactive; negative
mutagenic call [3]: inactive; negative
mutagenic call (Test System: AMES SALMONELLA TYPHIMURIUM, Strain/Indicator: TA104, Metabolic Activation: RAT LIVER S-9, PHENOBARBITAL, Method: STANDARD PLATE): inactive; negative
mutagenic call (Test System: AMES SALMONELLA TYPHIMURIUM, Strain/Indicator: TA1535, Metabolic Activation: NONE, Method: STANDARD PLATE): inactive; negative
mutagenic call (Test System: AMES SALMONELLA TYPHIMURIUM, Strain/Indicator: TA1535, Metabolic Activation: RAT, LIVER, S-9, AROCLOR 1254 OR PHENOBARBITOL, Method: STANDARD PLATE): inactive; negative
mutagenic call (Test System: AMES SALMONELLA TYPHIMURIUM, Strain/Indicator: TA1537, Metabolic Activation: NONE, Method: PREINCUBATION): active; positive
mutagenic call (Test System: AMES SALMONELLA TYPHIMURIUM, Strain/Indicator: TA1537, Metabolic Activation: NONE, Method: STANDARD PLATE): inactive; negative
mutagenic call (Test System: AMES SALMONELLA TYPHIMURIUM, Strain/Indicator: TA1537, Metabolic Activation: RAT, LIVER, S-9, AROCLOR 1254, Method: PREINCUBATION): active; positive
mutagenic call (Test System: AMES SALMONELLA TYPHIMURIUM, Strain/Indicator: TA1537, Metabolic Activation: RAT, LIVER, S-9, AROCLOR 1254, Method: STANDARD PLATE): active; positive
mutagenic call (Test System: AMES SALMONELLA TYPHIMURIUM, Strain/Indicator: TA1537, Metabolic Activation: RAT, LIVER, S-9, AROCLOR 1254 OR PHENOBARBITOL, Method: STANDARD PLATE): inactive; negative
mutagenic call (Test System: AMES SALMONELLA TYPHIMURIUM, Strain/Indicator: TA1538, Metabolic Activation: NONE, Method: STANDARD PLATE): inactive; negative
mutagenic call (Test System: AMES SALMONELLA TYPHIMURIUM, Strain/Indicator: TA1538, Metabolic Activation: RAT, LIVER, S-9, AROCLOR 1254 OR PHENOBARBITOL, Method: STANDARD PLATE): inactive; negative
mutagenic call (Test System: E.COLI, Strain/Indicator: WP2UVRA/PKM101, Metabolic Activation: NONE, Method: PREINCUBATION): inactive; negative
mutagenic call (Test System: E.COLI, Strain/Indicator: WP2UVRA/PKM101, Metabolic Activation: RAT LIVER S-9, PHENOBARBITAL AND 5,6-BENZOFLAVONE, Method: PREINCUBATION): inactive; negative

CC1(C)[C@H](C(=O)OCc2cccc(Oc3ccccc3)c2)[C@@H]1C=C(Cl)Cl
mutagenic call (Test System: AMES SALMONELLA TYPHIMURIUM, Strain/Indicator: TA97, Metabolic Activation: NONE, Method: STANDARD PLATE): inactive; negative
mutagenic call (Test System: AMES SALMONELLA TYPHIMURIUM, Strain/Indicator: TA97, Metabolic Activation: RAT, LIVER, S-9, PHENOBARBITONE, Method: STANDARD PLATE): inactive; negative
mutagenic call [1]: inactive; negative
mutagenic call (Test System: AMES SALMONELLA TYPHIMURIUM, Strain/Indicator: TA98, Metabolic Activation: RAT, LIVER, S-9, PHENOBARBITONE, Method: STANDARD PLATE): inactive; negative
mutagenic call [4]: inactive; negative
mutagenic call (Test System: AMES SALMONELLA TYPHIMURIUM, Strain/Indicator: TA100, Metabolic Activation: RAT, LIVER, S-9, PHENOBARBITONE, Method: STANDARD PLATE): inactive; negative
mutagenic call [3]: inactive; negative
mutagenic call (Test System: AMES SALMONELLA TYPHIMURIUM, Strain/Indicator: TA104, Metabolic Activation: RAT, LIVER, S-9, PHENOBARBITONE, Method: STANDARD PLATE): inactive; negative

N[C@@H](CS/C(Cl)=C(\Cl)C(Cl)=C(Cl)Cl)C(=O)O
mutagenic call [2]: active; positive
mutagenic call [4]: active; positive
mutagenic call (Test System: AMES SALMONELLA TYPHIMURIUM, Strain/Indicator: TA100, Metabolic Activation: RAT, KIDNEY, S-9, AROCLOR 1254, Method: STANDARD PLATE): active; positive
mutagenic call (Test System: AMES SALMONELLA TYPHIMURIUM, Strain/Indicator: TA2638, Metabolic Activation: NONE, Method: PREINCUBATION): active; positive

C=C(C)C1Cc2c(cc(O)c3c(=O)c4ccccc4n(C)c23)O1 (stereo not given)
mutagenic call [1]: inactive; negative
mutagenic call (Test System: AMES SALMONELLA TYPHIMURIUM, Strain/Indicator: TA98, Metabolic Activation: RAT, LIVER, S-9, 3-METHYLCHOLANTHRENE, Method: STANDARD PLATE): active; positive
mutagenic call (Test System: AMES SALMONELLA TYPHIMURIUM, Strain/Indicator: TA98, Metabolic Activation: RAT, LIVER, S-9, PHENOBARBITAL, Method: STANDARD PLATE): active; positive
mutagenic call (Test System: AMES SALMONELLA TYPHIMURIUM, Strain/Indicator: TA98, Metabolic Activation: RAT, LIVER, S-9, Method: STANDARD PLATE): active; positive
mutagenic call [4]: inactive; negative
mutagenic call (Test System: AMES SALMONELLA TYPHIMURIUM, Strain/Indicator: TA100, Metabolic Activation: RAT, LIVER, S-9, 3-METHYLCHOLANTHRENE, Method: STANDARD PLATE): active; positive
mutagenic call (Test System: AMES SALMONELLA TYPHIMURIUM, Strain/Indicator: TA100, Metabolic Activation: RAT, LIVER, S-9, PHENOBARBITAL, Method: STANDARD PLATE): active; positive
mutagenic call (Test System: AMES SALMONELLA TYPHIMURIUM, Strain/Indicator: TA100, Metabolic Activation: RAT, LIVER, S-9, Method: STANDARD PLATE): active; positive
